# Experimental data as given in US20230104487A1, “11-(4-CHLOROPHENYL)-4-(2,3-DIHYDRO-1H-INDOLE-1-CARBONYL)-3,11-DIMETHYL-5,10,DIOXATRICYCLO[7.4.0.0,2,6,]TRIDECA-1,3,6,8-TETRAEN-13-ONE AND DERIVATIVES AS DESTABILIZER OF CRY1 FOR THE TREATMENT OF CIRCADIAN RHYTHM ASSOCIATED DISEASES AND DISORDERS” (KOC UNIVERSITESI, priority 2019, published 2023).
# “Also recorded” adds a separate entry of the source.
# What was measured:
# CRY2 = target: T1, CRY2 (Mus musculus, UniProt Q9R194); assay: Pull-down assay with biotinylated molecule, CRY2-HIS-MYC; type: binding; details: 50 μM bFORMULA I, 100 μM FORMULA I competitor
# T1 construct: expressed in transfected cells; host or cells: HEK293T (lysate)
# T1 sequence (Q9R194 1-592): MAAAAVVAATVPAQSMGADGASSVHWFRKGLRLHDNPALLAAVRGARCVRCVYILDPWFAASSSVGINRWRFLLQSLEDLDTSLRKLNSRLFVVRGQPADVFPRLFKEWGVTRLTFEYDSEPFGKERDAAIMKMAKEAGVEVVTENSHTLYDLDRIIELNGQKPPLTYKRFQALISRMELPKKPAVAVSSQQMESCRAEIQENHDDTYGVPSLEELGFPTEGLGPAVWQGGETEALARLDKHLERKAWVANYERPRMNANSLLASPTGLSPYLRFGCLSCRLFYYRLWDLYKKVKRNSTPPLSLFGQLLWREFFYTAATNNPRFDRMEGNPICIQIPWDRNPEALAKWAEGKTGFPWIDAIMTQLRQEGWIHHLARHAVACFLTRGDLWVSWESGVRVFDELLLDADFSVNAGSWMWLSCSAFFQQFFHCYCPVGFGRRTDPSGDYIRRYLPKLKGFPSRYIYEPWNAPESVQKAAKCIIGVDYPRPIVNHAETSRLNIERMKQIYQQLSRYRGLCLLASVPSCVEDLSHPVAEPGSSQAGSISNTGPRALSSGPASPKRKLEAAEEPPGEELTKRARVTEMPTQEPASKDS
# Procedure: 10 μg of Cry1-pcDNA4, Cry2-pcDNA4 or Cry1-T5-pcDNA4 plasmids expressing His and Myc at the C-terminal of CRYs were transfected to HEK293T cell. After 48 h of transfection cells were harvested and lysed in lysis buffer (50 mM Tris pH 7.4, 2 mM EDTA, 1 mM MgCl2, 0.2% NP-40 (v/v), 0.1% sodium deoxycholate (w/v), 1 mM sodium orthovanadate, 1 mM sodium fluoride, and protease inhibitor cocktail (Thermo Scientific)). Lysates were incubated for 10 minutes on ice then mixed gently and incubated for another 10 minutes on ice. Then lysate was centrifuged for 10 minutes at 7000 g at 4° C. 5% of the supernatant was kept for input analysis. Remaining supernatant was divided to three and mixed with 2×binding buffer (100 mM Tris-HCl pH 7.4, 300 mM NaCl, 0.2% NP-40 (v/v), 2 mM sodium orthovanadate, 2 mM sodium fluoride, and protease inhibitor) with 1:1 ratio, incubated with rotation having either of these: a) DMSO, b) biotinylated molecule, c) biotinylated molecule and the competitor for 2 h. During this period NeutrAvidin Agarose resin (Thermo Scientific) was equilibrated with lysis buffer by mixing for 5 minutes via rotation at 4° C. three times. After each mix period, resins were centrifuged at 2500 g at 4° C. for 2 minutes and supernatant was discarded. […] Pulled-down samples were analyzed via western blot.
# [1] = tested on: Ras transformed p53-null MEF cell line; assay: Apoptosis assay (PARP cleavage) with oxaliplatin; type: cell-based, mouse; details: 0, 10 or 20 μM oxaliplatin followed by FORMULA I
# Procedure: FIGS. 6A-6B are an illustration of FORMULA I enhanced the effect of oxalipilatin in p53 null MSF cells. Ras pT24 transformed p53 null MSF fibroblast cells were treated with 0, 10 or 20 μM oxaliplatin and incubated for 24 h. Then either DMSO or FORMULA I was added and incubated for 16 h. Cells were lysed and analyzed via protein immunoblot technique. […] Bar graph was drawn normalizing to 10 μM dosage of oxaliplatin (Data represent the mean±SEM, n=4 **: p<0.005, * p<0.05 versus DMSO control by two-way ANOVA).
# In previous studies it was reported that […] mutation sensitizes the Ras transformed p53-null cells, but not cells with wild-type p53, to apoptosis induced by UV or UV mimetic agents e.g oxaliplatin. Using fibroblasts isolated from the skin of Cry1^−/−Cry2^−/−p53^−/− and p53^−/− mice, it has been shown that Cry deletion on the p53-null background sensitized the cells to bulky-DNA adduct-induced apoptosis (Lee and Sancar, 2011). With the expectation that FORMULA I would destabilize CRY1 and increase the effectiveness of UV mimetic chemotherapeutic agents, we performed apoptosis assay with Ras transformed p53-null MEF cell lines. In this assay, cells were treated by increasing dose of oxaliplatin for 16 h followed by FORMULA I treatment for 24 h and probed for apoptosis by measuring PARP cleavage. […]
structure (smiles),measurement,setting,value
"Cc1c(C(=O)N2CCc3ccccc32)oc2ccc3c(c12)C(=O)CC(C)(c1ccc(Cl)cc1)O3 (centres unmarked) [FORMULA I, 11-(4-chlorophenyl)-4-(2,3-dihydro-1H-indole-1-carbonyl)-3,11-dimethyl-5,10,dioxatricyclo[7.4.0.0,2,6,]trideca-1,3,6,8-tetraen-13-one]",physical binding to CRY2 (pull-down),CRY2,does not bind to CRY2
same,oxaliplatin-induced apoptosis (cleaved PARP),[1],sensitized Ras transformed p53-null MEF cell line to oxaliplatin-induced apoptosis; also recorded: increases the cleaved PARP protein level
